The source of these data is patent US8080497B2, “Method of controlling the aquatic weed Hydrilla verticillata” (BASF SE, priority 2005, dated 2011).

For the assay, the system named is Hydrilla verticillata. As to the kind of experiment: Greenhouse container test, static exposure of Hydrilla verticillata in water columns. It is filed as in vivo. The conditions noted are these: for Hydrilla Shoot Length: static exposure, 11 WAT, control 30.4 cm. The method, then:
To begin the experiment, PVC cylinders were filled and maintained with a volume of 4000 ml of dechlorinated water that was maintained at room temperature (24° C.). To each cylinder, an established Hydrilla verticillata plant (potted in sand mixture) was transferred into the water column. Hydrilla plants were selected for uniformity and length of shoot growth (approx 15 cm). Plants were allowed to equilibrate in the columns for 24 hrs prior to herbicide treatment. Experimental treatments included an untreated control, and imazamox at 50 and 100 ppb of actual acid equivalent of herbicide. Treatments were applied to water columns by the use of a pipette. Amount of herbicide applied was based on the total volume of the cylinders (4000 ml). After initial herbicide treatment, the water columns were gently stirred to ensure uniform distribution. Treatments were arranged as a completely random design with 3 replications. Each cylinder was considered the experimental unit. Greenhouse conditions were maintained at 24/18° C. (day/night) cycle for the duration of the experiment. Natural day length was supplemented with halogen lighting to provide a 14 h photoperiod. Water level in the cylinders was periodically checked and maintained at the 4000 ml level for the duration of the study. After 11 weeks of exposure, Hydrilla shoot lengths were measured to ascertain herbicide effects.

As for `COCc1cnc(C2=NC(C)(C(C)C)C(=O)N2)c(C(=O)O)c1` (racemic) [Imazamox, (RS)-2-(4-isopropyl-4-methyl-5-oxo-2-imidazolin-2-yl)-5-methoxymethylnicotinic acid], under “after the exposure period (11 weeks)”, the “effect on the growth of Hydrilla” value is recorded as “significant effect”. Also, the visual symptomology entry (after the exposure period (11 weeks), intensity tended to be rate responsive) was “reduction in plant vigour, chlorosis and reduction of internodal length”. Also, the “Hydrilla Shoot Length” value was 18.5 cm (rate 50 ppb) and 12.3 cm (rate 100 ppb).
